This note sets out measurements from patent US11932619B1, “3-(2-(6-Methoxypyridin-3-yl)-4,5-diphenyl-1H-imidazol-1-yl)-N,N-dimethylpropan-1-amine as an anticancer compound” (KING FAISAL UNIVERSITY, priority 2023, dated 2024).

Data set [1] deals with human osteosarcoma cells (MG-63). Description: Assessment of cytotoxicity by SRB assay. Type of data set: cell-based. The settings on record: MG-63 cells, 0.01 μM to 100 μM for 72 h. The procedure: (§1) The human prostate cancer cells (PC3) and human osteosarcoma cells (MG-63) were obtained from Nawah Scientific Inc. (Mokatam, Cairo, Egypt) and cultured in DMEM (Dulbecco's modified eagle's medium), Gibco, USA, supplemented with fetal bovine serum (FBS) at a concentration of 10% and 100 U/mL of penicillin and streptomycin (PS). The Cells were incubated at 37° C. in a humidified environment that contained 5% CO2.
(§2) Cells were seeded in 96-well plates as aliquots of 100 μL cell suspension and incubated in a complete media for 24 h. afterward, cells were treated with 3-(2-(6-Methoxypyridin-3-yl)-4,5-diphenyl-1H-imidazol-1-yl)-N,N-dimethylpropan-1-amine at diverse concentrations ranging from 0.01 μM to 100 μM for 72 h. Then, cells were fixed at 4° C. for one hour with 150 μL of 10% trichloroacetic acid (TCA). After washing the cells five times with distilled water, 70 μL of sulforhodamine (SRB) solution (0.4% w/v) was added and incubated for 10 min at room temperature in a dark place. […] Then, 150 μL of Tris pH 10.5 (10 mM) was added, and the absorbance was measured at 540 nm using a BMG LABTECH®- FLUOstar Omega microplate reader (Ortenberg, Germany). Half maximal inhibitory concentrations (IC50) values were calculated for each experiment using GraphPad Prism 6 software. […]
(§3) The inhibition was calculated using the following equation: Inhibition %=100-Average Viability

Data set [2] concerns human prostate cancer cells (PC3). Description: Assessment of cytotoxicity by SRB assay. It counts as cell-based. The following applies: 0.01 μM to 100 μM for 72 h. As for the experimental part: as §1, §2, §3
For orientation: The SRB assay estimates cell density from bound dye.

On to `COc1ccc(-c2nc(-c3ccccc3)c(-c3ccccc3)n2CCCN(C)C)cn1` [3-(2-(6-Methoxypyridin-3-yl)-4,5-diphenyl-1H-imidazol-1-yl)-N,N-dimethylpropan-1-amine], for which the melting point lay within 125 to 127 °C. Further, the antiproliferative activities entry in data set [1] is on record as “excellent antiproliferative activities”. In addition, the antiproliferative activities result in data set [2] is listed as “excellent antiproliferative activities”.

As a reminder, the melting point is the temperature of the solid-liquid transition.
